Test results as given in paper PMC3502511, “Inhibition of the Prokaryotic Pentameric Ligand-Gated Ion Channel ELIC by Divalent Cations” (PLoS Biology, 2012).
“And” between values parts separate entries of the source, which are not always exact repeats. Equal values may be shown once. Read-outs that look alike come from different tables or passages of the source.

Columns and labels:
ELIC D113A/D158A = target: T1, ELIC D113A/D158A (Dickeya chrysanthemi, UniProt P0C7B7, D113A/D158A/INS163G); assay: cell-based; format: cell-based, Erwinia chrysanthemi; conditions: D113A/D158A; for Slope: Schild plot slope; for pA / effects on the agonist dose-response curves in the double mutant: agonist cysteamine
T1 construct: expressed in transfected cells; host or cells: X. laevis oocytes
Procedure: (§1) Constructs containing the gene of either the WT or mutant channels preceded by the signal sequence of the chicken α7nAchR were cloned into the pTLN vector for expression in X. laevis oocytes. After linearization of the plasmid DNA by MluI, capped complementary RNA was transcribed with the mMessage mMachine kit (Ambion) and purified with the RNeasy kit (Qiagen). For expression, 1–50 ng of RNA was injected into defolliculated oocytes. Two-electrode voltage clamp measurements were performed 1 d after injection at 20°C (OC-725B, Warner Instrument Corp.). Currents were recorded in bath solutions containing 10 mM HEPES (pH 7), 130 mM NaCl, and the indicated concentrations of cysteamine and divalent cations. In case of solutions containing Zn^2+, cysteamine was replaced by propylamine. The membrane potential in all dose–response measurements was set to −40 mV. As ELIC is permeable to divalent cations, we tested if endogenous calcium-activated chloride channels affected our measurements. To chelate intracellular calcium ions, the oocytes were incubated for 15 to 30 min in bath solutions lacking divalent ions but containing 10 µM BAPTA-AM.

ELIC WT = target: T2, ELIC WT (Dickeya chrysanthemi, UniProt P0C7B7, INS163G); assay: cell-based; format: cell-based, Erwinia chrysanthemi; conditions: for Slope: Schild plot slope; for Ki: Schild analysis, read-out: Ki app
T2 construct: expressed in transfected cells; host or cells: X. laevis oocytes (cRNA injection, pTLN vector)
Procedure: as §1

ELIC R91A = target: T3, ELIC R91A (Dickeya chrysanthemi, UniProt P0C7B7, INS163G/R91A); assay: Two-electrode voltage clamp, ELIC R91A in oocytes; format: cell-based, Erwinia chrysanthemi; conditions: for Slope: Schild plot slope; for pA: agonist cysteamine
T3 construct: expressed in transfected cells; host or cells: X. laevis oocytes
Procedure: as §1

ELIC D86A = target: T4, ELIC D86A (Dickeya chrysanthemi, UniProt P0C7B7, D86A/INS163G); assay: Two-electrode voltage clamp, ELIC D86A in oocytes; format: cell-based, Erwinia chrysanthemi
T4 construct: expressed in transfected cells; host or cells: X. laevis oocytes
Procedure: as §1

ELIC S84A = target: T5, ELIC S84A (Dickeya chrysanthemi, UniProt P0C7B7, INS163G/S84A); assay: Two-electrode voltage clamp, ELIC S84A in oocytes; format: cell-based, Erwinia chrysanthemi; conditions: S84A
T5 construct: expressed in transfected cells; host or cells: X. laevis oocytes
Procedure: as §1

ELIC N251A = target: T6, ELIC N251A (Dickeya chrysanthemi, UniProt P0C7B7, N250A); assay: Two-electrode voltage clamp, ELIC N251A in oocytes; format: cell-based, Erwinia chrysanthemi
T6 construct: expressed in transfected cells; host or cells: X. laevis oocytes
Procedure: as §1

ELIC D113A = target: T7, ELIC D113A (Dickeya chrysanthemi, UniProt P0C7B7, D113A/INS163G); assay: Two-electrode voltage clamp, ELIC D113A in oocytes; format: cell-based, Erwinia chrysanthemi
T7 construct: expressed in transfected cells; host or cells: X. laevis oocytes
Procedure: as §1

ELIC D113N = target: T8, ELIC D113N (Dickeya chrysanthemi, UniProt P0C7B7, D113N/INS163G); assay: Two-electrode voltage clamp, ELIC D113N in oocytes; format: cell-based, Erwinia chrysanthemi
T8 construct: expressed in transfected cells; host or cells: X. laevis oocytes
Procedure: as §1

ELIC D158A = target: T9, ELIC D158A (Dickeya chrysanthemi, UniProt P0C7B7, D158A/INS163G); assay: Two-electrode voltage clamp, ELIC D158A in oocytes; format: cell-based, Erwinia chrysanthemi
T9 construct: expressed in transfected cells; host or cells: X. laevis oocytes
Procedure: as §1

ELIC D158N = target: T10, ELIC D158N (Dickeya chrysanthemi, UniProt P0C7B7, D158N/INS163G); assay: Two-electrode voltage clamp, ELIC D158N in oocytes; format: cell-based, Erwinia chrysanthemi
T10 construct: expressed in transfected cells; host or cells: X. laevis oocytes
Procedure: as §1

ELIC E150A = target: T11, ELIC E150A (Dickeya chrysanthemi, UniProt P0C7B7, E150A/INS163G); assay: Two-electrode voltage clamp, ELIC E150A in oocytes; format: cell-based, Erwinia chrysanthemi
T11 construct: expressed in transfected cells; host or cells: X. laevis oocytes
Procedure: as §1

ELIC E150Q = target: T12, ELIC E150Q (Dickeya chrysanthemi, UniProt P0C7B7, E150Q/INS163G); assay: Two-electrode voltage clamp, ELIC E150Q in oocytes; format: cell-based, Erwinia chrysanthemi
T12 construct: expressed in transfected cells; host or cells: X. laevis oocytes
Procedure: as §1

ELIC = target: T13, ELIC (Dickeya chrysanthemi, UniProt P0C7B7, INS163G); conditions: high Ca^2+ concentration; cited from earlier work
T13 construct: expressed in transfected cells; host or cells: HEK 293 cells (ATCC CRL-1573), pcDNA3

[1] = WT, Schild plot x-intercept (log of mM), agonist cysteamine, −40 mV
[2] = Schild analysis, read-out: Ki app

## CC(=O)OCC[N+](C)(C)C [ACh, acetylcholine]
ELIC D113A/D158A
  Slope: 0.8±0.1
  pA: 0.32±0.06
ELIC WT; WT/1 mM Ca^2+ present, agonist cysteamine
  pA: 0.35±0.01
ELIC WT; WT/1 mM Ca^2+
  Slope: 1.1±0.01
ELIC WT; WT/.25 mM Ca^2+ present, agonist cysteamine
  pA: 0.06±0.06
ELIC WT; WT/.25 mM Ca^2+
  Slope: 0.9±0.1
ELIC WT; WT/.5 mM Ca^2+ present, agonist cysteamine
  pA: 0.11±0.09
ELIC WT; WT/.5 mM Ca^2+
  Slope: 0.9±0.01
ELIC WT; WT, agonist cysteamine
  Slope: 1.0±0.1
ELIC WT; WT, agonist cysteamine, listed as acetylcholine
  Slope: unity
ELIC WT; [1]
  pA: 0.21±0.06
ELIC R91A; R91A versus WT
  increase in the Schild affinity in the mutant R91A: 10 fold
ELIC R91A; R91A
  Slope: 0.7±0.1
  pA: −0.77±0.05

## [Ba+2] [Ba^2+, barium]
ELIC D113A/D158A; [2]
  Ki: 6500 µM
ELIC D113A/D158A
  Slope: 0.6±0.02
  effects on the agonist dose-response curves in the double mutant: virtually abolishes
  pA: 0.81±0.02
ELIC WT; WT, agonist cysteamine
  Ki: 850 µM
  Slope: 1.1±0.03
ELIC WT; [1]
  pA: −0.07±0.01

## [Ca+2] [Ca^2+, calcium]
ELIC D113A/D158A
  effects on the agonist dose-response curves in the double mutant: virtually abolishes
ELIC WT; 5 mM Ca^2+, saturating cysteamine, −40 mV
  reduction of maximum agonist response: 55%
ELIC WT; WT/1 mM ACh present, agonist cysteamine
  pA: −0.65±0.01
ELIC WT; WT/1 mM ACh
  Ki: 220 µM
  Slope: 0.9±0.02
ELIC WT; WT/BAPTA (BAPTA-AM-treated oocytes), agonist cysteamine
  pA: −0.69±0.11
ELIC WT; WT/BAPTA
  Ki: 200 µM
  Slope: 1.0±0.3
ELIC WT; WT, agonist cysteamine
  Ki: 260 µM
  Slope: 0.8 and 0.8±0.05
ELIC WT; [1]
  pA: −0.57±0.03
ELIC WT; WT, maximum cysteamine response, read-out: IC50 of decline of maximum current response (Langmuir equation)
  IC50: 6000 µM
ELIC WT; at 6 mM calcium, channel block subtracted
  decrease in the agonist maximum response: about 50%
ELIC R91A; R91A, Schild analysis, read-out: Ki app
  Ki: 210 µM
ELIC R91A; R91A
  Slope: 0.7±0.1
  pA: −0.69±0.03
ELIC D86A; [2]
  Ki: 250 µM
ELIC D86A; Schild plot slope
  Slope: 0.8±0.1
ELIC D86A; agonist cysteamine
  pA: −0.60±0.11
ELIC S84A; [2]
  Ki: 150 µM
ELIC S84A; Schild plot slope
  Slope: 0.6±0.2
ELIC S84A; agonist cysteamine
  pA: −0.83±0.14
ELIC N251A; [2]
  Ki: 530 µM
ELIC N251A; Schild plot slope
  Slope: 0.9±0.2
ELIC N251A; agonist cysteamine
  pA: −0.27±0.19
ELIC D113A; [2]
  Ki: 4900 µM
ELIC D113A; Schild plot slope
  Slope: 1.0±0.3
ELIC D113A; agonist cysteamine
  pA: 0.69±0.04
ELIC D113N; [2]
  Ki: 950 µM
ELIC D113N; Schild plot slope
  Slope: 1.0±0.01
ELIC D113N; agonist cysteamine
  pA: −0.02±0.08
ELIC D158A; [2]
  Ki: 5400 µM
ELIC D158A; Schild plot slope
  Slope: 1.2±0.1
ELIC D158A; agonist cysteamine
  pA: 0.74±0.01
ELIC D158N; [2]
  Ki: 3200 µM
ELIC D158N; Schild plot slope
  Slope: 0.5±0.2
ELIC D158N; agonist cysteamine
  pA: 0.50±0.17
ELIC E150A; [2]
  Ki: 1700 µM
ELIC E150A; Schild plot slope
  Slope: 1.0±0.2
ELIC E150A; agonist cysteamine
  pA: 0.23±0.12
ELIC E150Q; [2]
  Ki: 1200 µM
ELIC E150Q; Schild plot slope
  Slope: 0.9±0.3
ELIC E150Q; agonist cysteamine
  pA: 0.09±0.20
ELIC
  maximum decrease of single channel currents: about 50%

## [Mg+2] [Mg^2+]
ELIC WT; WT, agonist cysteamine
  Ki: 430 µM
  Slope: 0.9±0.01
ELIC WT; [1]
  pA: −0.36±0.02
